Measured values published in patent US9850221B2, “Sulfated and unsulfated flavonoid oligomers as cancer therapeutics” (VIRGINIA COMMONWEALTH UNIVERSITY, priority 2013, dated 2017).

Columns and labels:
Assay type in all cases: cell-based, human
[1] = system: HT-29 cells; test: Primary (1°) colonosphere formation assay, HT-29 (Screen 1); conditions: 100 μM
Protocol: Primary (1°) Colonosphere Formation Assay. For primary sphere formation, cells were plated in non-treated, low adhesion, 96 wells plate at the concentration of 100 cells/100 μL/well in stem cell media (SCM) that consisted of DMEM:F12:AA (Gibco), supplemented with 1×B27 (Gibco), 20 ng/mL epidermal growth factor and 10 ng/mL fibroblast growth factor (Sigma). After four hour of incubation, vehicle (control) or NSGM at the desired concentrations were added to each well (at least in triplicates for each sample). On day five, numbers of spheres ranging from […] in diameter were counted using phase contrast microscope and percent inhibition was calculated compared to control.
In this screen, sulfated NSGMs that inhibit HT-29 growth under spheroid conditions, but not under monolayer conditions, were then assessed for retention of 2° and 3° spheroid growth inhibition profiles in the absence of NSGM. The latter screen is of particular importance as primary spheroid growth although selective for CSCs doses not distinguish between non self-renewing progenitors and self-renewing CSCs. […] These 11 NSGMs belonged to G2, G4, G11 and G12 scaffolds but only four of the six G2 molecules, one of the two G4, four of the seven G11 and two of the five G12 molecules satisfied the first screen.

[2] = system: LGR5; test: Flow cytometry analysis of CSC markers in HT-29 spheroids; conditions: 100 μM, vs vehicle-treated controls
Protocol: Flow Cytometry Analysis. Human colon cancer HT-29 cells, grown in spheroid or monolayer condition were treated with vehicle or NSGMs for 24 hours, were trypsinized and single cells were re-suspended at 10^6 cells/mL in PBS buffer. Cells were incubated with fluorophore conjugated antibody for 30 minutes at 4° C. and washed once with PBS buffer prior to analysis. Following antibody and dilution were used: LGR5-PE) (Dilution 1:50, Origene), DCLK1 (Dilution 1:33, Abeam). Cell sorting was performed using FACSAria™ II High-Speed Cell Sorter (BD Biosciences) and data were analyzed with FCS Express 4 Flow Cytometry software (De-Novo Software).

[3] = system: self-renewal factors OCT4, BMI-1, c-MYC; test: Western blot of self-renewal factors in spheroids; conditions: 100 μM, HT-29
Protocol: (§1) Western Blotting Analysis. Western blot analysis was performed according to the standard protocol described in the literature. Briefly, HT-29 cells were plated in serum-free SCM in a low adhesion 6-well plate to obtain spheroids. Mature spheroids were treated on day 4 after plating, with vehicle or NSGMs for indicated time and cells were solubilized in lysis buffer (20 mM Na3PO4, 100 mM NaCl, 2 mM EDTA, 1% Nonidet P-40, 2.5 mM Na3VO4) containing protease (Roche) as well as phosphatase inhibitor cocktails (Sigma). Following centrifugation at 14,000 g for 15 min, the supernatant was used for Western blot analysis. In all analyses, protein concentration was determined by the Bio-Rad Protein Assay kit (Bio-Rad). Approximately 25-50 μg of protein was separated by polyacrylamide gel electrophoresis and was transferred to PVDF membrane (Bio-Rad). Blocking was done with 5% low fat milk powder for 1 hr followed by overnight incubation with primary antibody (dilution 1:1000): anti-CD44 (Cell Signaling), anti-EpCAM (Cell Signaling), anti-LGR5 (Origene), anti-CD133 ((Miltenyi Biotec), anti-CXCR4 (Abeam), anti-OCT4 (Cell Signaling), anti-BMI-1 (Millipore), anti-c-MYC (Millipore) and anti-CK20 (Abeam). This was followed by incubation with appropriate secondary antibody and protein bands were visualized using the enhanced chemiluminescence detection system and imaged with LAS-3000 Imaging System (FUJIFILM). Densitometry was determined by AIDA image analyzer software (Raytest) and results were calculated as relative intensity compared to control. All experiments were performed at least three times.

[4] = system: CSC markers CD44, CD133, EpCAM, LGR5, CXCR-4; test: Western blot of CSC markers in HT-29 spheroids; conditions: HT-29 spheroids, 100 μM, Western blot densitometry vs vehicle
Protocol: as §1

[5] = system: HCT-116 cells, grown in spheroid condition; test: Apoptosis assay (annexin V/propidium iodide and acridine orange/ethidium bromide); conditions: annexin V labeling and acridine orange/ethidium bromide staining, 100 μM, 24 hours, vs vehicle
Protocol: Apoptosis Assay. Human colon cancer HCT-116 cells, grown in spheroid condition were treated with vehicle or NSGMs for 24 hours. Following which cells were trypsinized and single cells were re-suspended at 10^6 cells/mL in PBS buffer. Two different methods were used to assess apoptosis induction. In the first methods, cells were incubated with propidium iodide and Annexin V-APC (ebioscience) and flow cytometric analyses were performed as above. […] Briefly, a small volume of cell suspension was mounted on a glass slide and incubated with 1 μl of AO/EB solution and mixed gently just prior to microscopy and quantification. At least 500 cells in 10-15 fields were examined in each sample using Nikon ECLIPSE E800M fluorescence microscope using 20× objective. […] The data was expressed as apoptosis index=[([apoptotic cells (NSGMs)/total cells (NSGMs)]/[apoptotic cells (vehicle)/total cells (vehicle)]).

SMILES: O=c1cc(-c2ccc(OS(=O)(=O)O)c(OS(=O)(=O)O)c2)oc2cc(OS(=O)(=O)O)cc(OS(=O)(=O)O)c12 [G1.4]
- Screen 1 outcome (spheroid versus monolayer growth inhibition) [1]: completely failed
- reduction in LGR5 (hi) cells [2]: < 15%
- BMI-1 expression [3]: no such changes
- c-MYC expression [3]: no such changes
- reduction of expression of CSC markers (CD44, CD133, EpCAM, LGR5, CXCR-4) [4]: no effect
- induction of apoptosis in spheroid cells [5]: no such effects
